This test deals with T1, PI3Kα (p110α/p85α) (Homo sapiens, UniProt P42336).
T1 construct: purchased BPS Bioscience (San Diego, Calif.) or Millipore (Billerica, Mass.)
Briefly: HTRF assay, potency against active PI3Kα. Type of test: biochemical. The conditions noted are these: HTRF; [ATP]=50 μM, [di-C8-PIP2]=10 μM; 30 min pre-incubation; read-out: PI3Kα Inhibition. Here is the method:
Homogeneous Time Resolved Fluorescence (HTRF) Assay Protocol for Potency Assessment Against the Active Forms of PI3Kα, PI3Kβ, and PI3Kγ
The mechanics of the assay platform are best described by the vendor (Millipore, Billerica, Mass.) on their website at the following URL: www.millipore.com/coa/tech1/74jt4z.
Briefly, Stop solution (Stop A, #33-007 and Stop B, #33-009; 3:1 ratio) and Detection Mix (from DMC, #33-015 with DMA, #33-011 and DMB, #33-013; 18:1:1 ratio) were prepared as recommended by the manufacturer about 2 hrs prior to use. […] Lipid kinase reactions were started with the addition of 5 μL of ATP solution, mixed for 15 sec on a rotary plate shaker and incubated for 30-60 minutes at 25° C. Next, reactions were stopped with a 5 μL addition of Stop solution immediately followed by a 5 μL volume of Detection Mix. […] At the conclusion of each assay, the HTRF ratio from fluorescence emission values for each well was calculated and % Inhibition determined from averaged controls wells (+/−PI3K enzyme). % Inhibition values for each compound were then plotted against inhibitor concentration to estimate IC50 from log [Inhibitor] vs Response, Variable Slope model in GraphPad Prism from GraphPad Software (San Diego, Calif.).

This note sets out measurements from patent publication US20110230476A1, “PI3 KINASE INHIBITORS AND USES THEREOF” (AVILA THERAPEUTICS, INC., priority 2009, published 2011).

T1 sequence (P42336 whole entry): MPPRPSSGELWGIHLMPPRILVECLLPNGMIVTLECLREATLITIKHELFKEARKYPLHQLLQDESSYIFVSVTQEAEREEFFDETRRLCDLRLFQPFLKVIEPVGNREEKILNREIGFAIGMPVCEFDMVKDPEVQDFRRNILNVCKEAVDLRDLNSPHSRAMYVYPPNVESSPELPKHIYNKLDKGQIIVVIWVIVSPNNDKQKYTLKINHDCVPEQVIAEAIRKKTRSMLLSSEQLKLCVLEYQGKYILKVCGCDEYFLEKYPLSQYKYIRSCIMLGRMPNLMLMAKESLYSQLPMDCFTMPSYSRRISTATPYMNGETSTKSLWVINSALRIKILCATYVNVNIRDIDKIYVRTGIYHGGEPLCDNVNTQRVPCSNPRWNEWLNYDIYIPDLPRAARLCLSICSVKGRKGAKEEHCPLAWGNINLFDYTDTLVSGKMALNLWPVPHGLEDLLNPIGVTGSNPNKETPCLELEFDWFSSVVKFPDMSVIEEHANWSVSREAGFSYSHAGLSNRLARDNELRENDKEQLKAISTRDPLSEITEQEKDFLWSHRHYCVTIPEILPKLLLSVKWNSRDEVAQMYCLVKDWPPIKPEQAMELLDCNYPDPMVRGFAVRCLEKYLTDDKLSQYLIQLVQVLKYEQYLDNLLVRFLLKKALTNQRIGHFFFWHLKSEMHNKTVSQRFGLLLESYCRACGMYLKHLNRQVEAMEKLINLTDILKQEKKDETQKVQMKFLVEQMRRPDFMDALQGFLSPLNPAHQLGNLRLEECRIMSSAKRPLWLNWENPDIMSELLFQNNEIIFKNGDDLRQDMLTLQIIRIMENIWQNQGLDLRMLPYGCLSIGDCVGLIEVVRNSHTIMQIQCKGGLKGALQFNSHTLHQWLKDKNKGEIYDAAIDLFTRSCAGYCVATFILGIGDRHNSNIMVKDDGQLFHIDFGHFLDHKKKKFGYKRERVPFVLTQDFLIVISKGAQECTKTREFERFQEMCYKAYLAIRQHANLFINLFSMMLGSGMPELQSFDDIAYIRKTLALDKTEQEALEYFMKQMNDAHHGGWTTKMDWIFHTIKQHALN
T1 sequence (P27986 whole entry partner): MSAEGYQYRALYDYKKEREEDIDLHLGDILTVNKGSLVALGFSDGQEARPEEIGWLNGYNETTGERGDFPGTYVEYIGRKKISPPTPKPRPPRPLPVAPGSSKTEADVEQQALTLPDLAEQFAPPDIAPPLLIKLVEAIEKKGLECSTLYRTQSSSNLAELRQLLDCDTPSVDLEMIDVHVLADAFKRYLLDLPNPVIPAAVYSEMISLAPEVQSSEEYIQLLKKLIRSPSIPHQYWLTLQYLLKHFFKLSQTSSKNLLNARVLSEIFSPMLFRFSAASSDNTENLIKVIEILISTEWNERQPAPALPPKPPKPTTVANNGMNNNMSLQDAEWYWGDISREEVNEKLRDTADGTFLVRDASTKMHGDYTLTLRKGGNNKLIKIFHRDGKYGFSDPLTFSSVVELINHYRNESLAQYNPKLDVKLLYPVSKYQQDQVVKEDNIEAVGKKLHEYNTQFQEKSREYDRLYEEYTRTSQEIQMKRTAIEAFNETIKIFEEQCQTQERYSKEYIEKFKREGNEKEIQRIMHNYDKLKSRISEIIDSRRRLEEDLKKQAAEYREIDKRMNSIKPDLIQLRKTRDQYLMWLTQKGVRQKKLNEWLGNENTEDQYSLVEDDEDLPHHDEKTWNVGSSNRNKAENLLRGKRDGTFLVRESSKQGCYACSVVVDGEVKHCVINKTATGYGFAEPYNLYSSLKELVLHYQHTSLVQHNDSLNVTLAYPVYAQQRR

Take `O=C(/C=C/c1cnc[nH]1)NCC12CCC(c3cc4nc(-c5cccc6[nH]ncc56)nc(N5CCOCC5)c4s3)(CC1)OC2` [II-a-177, (E)-N-((1-(2-(1H-indazol-4-yl)-4-morpholinothieno[3,2-d]pyrimidin-6-yl)-2-oxabicyclo[2.2.2]octan-4-yl)methyl)-3-(1H-imidazol-5-yl)acrylamide]: the IC50 is 0.1 to 1 µM.

Turning to `C=CC(=O)N1CCN(C2CCC(O)(c3cc4nc(-c5cccc6[nH]ncc56)nc(N5CCOCC5)c4s3)CC2)CC1` (mixture of isomers) [II-a-152, 1-(4-(4-(2-(1H-indazol-4-yl)-4-morpholinothieno[3,2-d]pyrimidin-6-yl)-4-hydroxycyclohexyl)piperazin-1-yl)prop-2-en-1-one], the IC50 is 0.1 to 1 µM.

For the compound `C/C=C/C(=O)CCCC(=O)N1CCN(c2ccc(-c3ccnc4ccc(/C=C5\SC(=O)NC5=O)cc34)cn2)CC1` [V-14, (Z)-5-((4-(6-(4-((E)-5-oxooct-6-enoyl)piperazin-1-yl)pyridin-3-yl)quinolin-6-yl)methylene)thiazolidine-2,4-dione], the IC50 is below 0.01 µM.

For the compound `CC(C)=CC(=O)CCc1ccc(C#Cc2cc(-c3cnc(N)nc3)nc(N3CCOCC3)c2)cc1` [XII-21, 1-(4-((2-(2-aminopyrimidin-5-yl)-6-morpholinopyridin-4-yl)ethynyl)phenyl)-5-methylhex-4-en-3-one], the IC50 was above 1 µM.

For the compound `C/C=C/C(=O)CCC(=O)N1CCc2ccc(-c3cc4nc(-c5cccc(O)c5)nc(N5CCOCC5)c4s3)cc2C1` [II-a-67, (E)-1-(7-(2-(3-hydroxyphenyl)-4-morpholinothieno[3,2-d]pyrimidin-6-yl)-3,4-dihydroisoquinolin-2(1H)-yl)hept-5-ene-1,4-dione], the IC50 is below 0.01 µM.

For `C=CC(=O)NCCCC(=O)N1CCN(Cc2cc3nc(-c4cccc5[nH]ncc45)nc(N4CCOCC4)c3s2)CC1` [II-a-20, N-(4-(4-((2-(1H-indazol-4-yl)-4-morpholinothieno[3,2-d]pyrimidin-6-yl)methyl)piperazin-1-yl)-4-oxobutyl)acrylamide], the IC50 is 0.1 to 1 µM.

As for `C/C=C/C(=O)CCC(=O)N1CCN(c2ccc(-c3ccnc4ccc(/C=C5\SC(=O)NC5=O)cc34)cn2)CC1` [V-13, (Z)-5-((4-(6-(4-((E)-4-oxohept-5-enoyl)piperazin-1-yl)pyridin-3-yl)quinolin-6-yl)methylene)thiazolidine-2,4-dione], the IC50 was below 0.01 µM.

Regarding `CC(C)=CC(=O)CCC(=O)N1CC=C(c2cc3nc(-c4cnc(N)nc4)nc(N4CCOCC4)c3s2)CC1` [II-a-165, 1-(4-(2-(2-aminopyrimidin-5-yl)-4-morpholinothieno[3,2-d]pyrimidin-6-yl)-5,6-dihydropyridin-1(2H)-yl)-6-methylhept-5-ene-1,4-dione], the IC50 is 0.01 to 0.1 µM.

Take `C=C(C)C(=O)CCC(=O)N1CCC(C#Cc2cc3nc(-c4cccc(O)c4)nc(N4CCOCC4)c3s2)CC1` [II-a-103, 1-(4-((2-(3-hydroxyphenyl)-4-morpholinothieno[3,2-d]pyrimidin-6-yl)ethynyl)piperidin-1-yl)-5-methylhex-5-ene-1,4-dione]: the IC50 was below 0.01 µM.

As for `CC(C)(C)/C=C/C(=O)CCC(=O)N1CCN(Cc2cc3nc(-c4cccc5[nH]ncc45)nc(N4CCOCC4)c3s2)CC1` [II-a-131, (E)-1-(4-((2-(1H-indazol-4-yl)-4-morpholinothieno[3,2-d]pyrimidin-6-yl)methyl)piperazin-1-yl)-7,7-dimethyloct-5-ene-1,4-dione], the IC50 fell in the range of 0.1 to 1 µM.

As to `C=CC(=O)Nc1ccc(OCc2cc3nc(-c4cnc(N)nc4)cc(N4CCOCC4)c3s2)cc1` [II-g-8, N-(4-((5-(2-aminopyrimidin-5-yl)-7-morpholinothieno[3,2-b]pyridin-2-yl)methoxy)phenyl)acrylamide], the IC50 lay in the range of 0.1 to 1 µM.

Take `CC(C)OC/C=C/C(=O)CCC(=O)N1CCN(Cc2cc3nc(-c4cccc5[nH]ncc45)nc(N4CCOCC4)c3s2)CC1` [II-a-62, (E)-1-(4-((2-(1H-indazol-4-yl)-4-morpholinothieno[3,2-d]pyrimidin-6-yl)methyl)piperazin-1-yl)-7-isopropoxyhept-5-ene-1,4-dione]: the IC50 lay in the range of 0.01 to 0.1 µM.

Take `C=CC(=O)N[C@@H]1CCCC[C@H]1C(=O)N1CCN(Cc2cc3nc(-c4cccc5[nH]ncc45)nc(N4CCOCC4)c3s2)CC1` [II-a-97]: the IC50 lay in the range of 0.1 to 1 µM.

As for `CC(C)=CC(=O)C(=O)N1CCC(C#Cc2cc(-c3cnc(N)nc3)nc(N3CCOCC3)c2)CC1` [XII-32, 1-(4-((2-(2-aminopyrimidin-5-yl)-6-morpholinopyridin-4-yl)ethynyl)piperidin-1-yl)-4-methylpent-3-ene-1,2-dione], the IC50 lay in the range of 0.1 to 1 µM.

As for `C=CC(=O)N1CCN(Cc2cc3nc(-c4cccc5[nH]ncc45)nc(N4CCOCC4)c3s2)CC1` [II-a-2, 1-(4-((2-(1H-indazol-4-yl)-4-morpholinothieno[3,2-d]pyrimidin-6-yl)methyl)piperazin-1-yl)prop-2-en-1-one], the IC50 was 0.01 to 0.1 µM.

Consider `CC(C)=CC(=O)CCCCC#Cc1cc(-c2cnc(N)cc2C(F)(F)F)nc(N2CCOCC2)c1` [XII-8, 10-(6′-amino-6-morpholino-4′-(trifluoromethyl)-2,3′-bipyridin-4-yl)-2-methyldec-2-en-9-yn-4-one], for which the IC50 is above 1 µM.

With `C=CC(=O)N[C@H]1CC[C@@H](C(=O)N2CCN(Cc3cc4nc(-c5cccc6[nH]ncc56)nc(N5CCOCC5)c4s3)CC2)CC1` [II-a-99], the IC50 is 0.1 to 1 µM.

Take `CC(C)=CC(=O)C1(C(=O)N2CCC3(CC2)CCN(c2cc(-c4cnc(N)nc4)nc(N4CCOCC4)c2)CC3)CC1` [XII-36, 1-(1-(9-(2-(2-aminopyrimidin-5-yl)-6-morpholinopyridin-4-yl)-3,9-diazaspiro[5.5]undecane-3-carbonyl)cyclopropyl)-3-methylbut-2-en-1-one]: the IC50 was 0.1 to 1 µM.

In the case of `CN(C)C/C=C/C(=O)NC1CCN(c2ccc(-c3cc4nc(-c5cccc(O)c5)nc(N5CCOCC5)c4s3)cc2)CC1` [II-a-150, (E)-4-(dimethylamino)-N-(1-(4-(2-(3-hydroxyphenyl)-4-morpholinothieno[3,2-d]pyrimidin-6-yl)phenyl)piperidin-4-yl)but-2-enamide], the IC50 fell in the range of 0.01 to 0.1 µM.

For `C=CC(=O)N1CCC(O)(C#Cc2cc3nc(-c4cccc5[nH]ncc45)nc(N4CCOCC4)c3s2)CC1` [II-a-101, 1-(4-((2-(1H-indazol-4-yl)-4-morpholinothieno[3,2-d]pyrimidin-6-yl)ethynyl)-4-hydroxypiperidin-1-yl)prop-2-en-1-one], the IC50 is 0.1 to 1 µM.

As to `CC(C)=CC(=O)C(=O)N1CCN(c2ccc(-c3cc(-c4cnc(N)nc4)nc(N4CCOCC4)c3)cn2)CC1` [XII-25, 1-(4-(2′-(2-aminopyrimidin-5-yl)-6′-morpholino-3,4′-bipyridin-6-yl)piperazin-1-yl)-4-methylpent-3-ene-1,2-dione], the IC50 was 0.01 to 0.1 µM.

As to `CC(C)=CC(=O)CN1CCN(c2ccc(-c3cc(-c4cnc(N)nc4)nc(N4CCOCC4)c3)cn2)CC1` [XII-27, 1-(4-(2′-(2-aminopyrimidin-5-yl)-6′-morpholino-3,4′-bipyridin-6-yl)piperazin-1-yl)-4-methylpent-3-en-2-one], the IC50 was 0.01 to 0.1 µM.

For the compound `C=CC(=O)N1CCC(C#Cc2cc3nc(-c4cccc(O)c4)nc(N4CCOCC4)c3s2)CC1` [II-a-70, 1-(4-((2-(3-hydroxyphenyl)-4-morpholinothieno[3,2-d]pyrimidin-6-yl)ethynyl)piperidin-1-yl)prop-2-en-1-one], the IC50 was 0.01 to 0.1 µM.

Turning to `CC(C)=CC(=O)CCCC(=O)N1CCN(Cc2cc(-c3cnc(N)nc3)nc(N3CCOCC3)c2)CC1` [XII-23, 1-(4-((2-(2-aminopyrimidin-5-yl)-6-morpholinopyridin-4-yl)methyl)piperazin-1-yl)-7-methyloct-6-ene-1,5-dione], the IC50 was 0.1 to 1 µM.

As for `C/C=C/C(=O)CCCC(=O)N1CCN(c2ccc(-c3ccnc4ccc(/C=C5\SC(=O)NC5=O)cc34)cc2)CC1` [V-16, (Z)-5-((4-(4-(4-((E)-5-oxooct-6-enoyl)piperazin-1-yl)phenyl)quinolin-6-yl)methylene)thiazolidine-2,4-dione], the IC50 is below 0.01 µM.

With `CCC(=O)NC1CCN(c2ccc(-c3cc4nc(-c5cccc(O)c5)nc(N5CCOCC5)c4s3)cc2)CC1` [II^R-a-81, N-(1-(4-(2-(3-hydroxyphenyl)-4-morpholinothieno[3,2-d]pyrimidin-6-yl)phenyl)piperidin-4-yl)propionamide], the IC50 was 0.1 to 1 µM.

Take `C=CC(=O)NCC(=O)NCc1ccc(-c2cc3nc(-c4cccc5[nH]ncc45)nc(N4CCOCC4)c3s2)cc1` [II-a-128, N-(2-(4-(2-(1H-indazol-4-yl)-4-morpholinothieno[3,2-d]pyrimidin-6-yl)benzylamino)-2-oxoethyl)acrylamide]: the IC50 fell in the range of 0.1 to 1 µM.

Regarding `C/C=C/C(=O)CCCC(=O)NCC(=O)Nc1ccc2c(c1)N(c1nc3c(s1)C(=O)NC(C)(C)C3)CCO2` [VI-25], the IC50 is above 1 µM.

As for `CC(C)=CC(=O)CCCC(=O)N1CCN(c2cc(-c3cnc(N)nc3)nc(N3CCOCC3)c2)CC1` [XII-30, 1-(4-(2-(2-aminopyrimidin-5-yl)-6-morpholinopyridin-4-yl)piperazin-1-yl)-7-methyloct-6-ene-1,5-dione], the IC50 was 0.1 to 1 µM.
